In PubChem BioAssay (NCI):
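Exposure lasted 48 hours, with cells grown in 96-well plates and compounds tested at five concentrations. Abbreviation: GI50, concentration required for 50% inhibition of growth. TGI is the concentration that stops growth completely.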

Experiments:
Experiment in all cases: DTP human tumour cell line panel, 48 h
HOP-62 NSCLC = tested on: HOP-62 NSCLC
CCRF-CEM leukemia = tested on: CCRF-CEM leukemia
SR leukemia = tested on: SR leukemia
CAKI-1 renal = tested on: CAKI-1 renal
MCF7 breast = tested on: MCF7 breast
IGROV1 ovarian = tested on: IGROV1 ovarian
SK-MEL-5 melanoma = tested on: SK-MEL-5 melanoma
OVCAR-3 ovarian = tested on: OVCAR-3 ovarian
SN12C renal = tested on: SN12C renal
HL-60(TB) leukemia = tested on: HL-60(TB) leukemia

Row | SMILES | GI50 (HOP-62 NSCLC) [µM] | TGI (HOP-62 NSCLC) [µM] | GI50 (CCRF-CEM leukemia) [µM] | TGI (CCRF-CEM leukemia) [µM] | GI50 (SR leukemia) [µM] | TGI (SR leukemia) [µM] | GI50 (CAKI-1 renal) [µM] | TGI (CAKI-1 renal) [µM] | GI50 (MCF7 breast) [µM] | TGI (MCF7 breast) [µM] | GI50 (IGROV1 ovarian) [µM] | TGI (IGROV1 ovarian) [µM] | GI50 (SK-MEL-5 melanoma) [µM] | TGI (SK-MEL-5 melanoma) [µM] | GI50 (OVCAR-3 ovarian) [µM] | TGI (OVCAR-3 ovarian) [µM] | GI50 (SN12C renal) [µM] | TGI (SN12C renal) [µM] | GI50 (HL-60(TB) leukemia) [µM] | TGI (HL-60(TB) leukemia) [µM]
1 | O=C(Oc1ccc(CCl)cc1)c1ccccc1 | 0.17 | 0.333 | 0.0335 | 0.146 | 0.0594 | 0.423 | 0.16 | 0.303 | 0.179 | 0.525 | 0.212 | 0.419 | 0.447 | 1.64 | 0.164 | 0.304 | – | – | – | –
2 | CC1(C)N=C(N)N=C(N)N1c1cc(Cl)ccc1Cl | > 100 | > 100 | > 100 | > 100 | > 100 | > 100 | – | – | > 100 | > 100 | 27.6 | 88.6 | > 100 | > 100 | 53.1 | > 100 | > 100 | > 100 | 74.7 | > 100
3 | N.N.NC(CS)C(=O)[O-].NC(CS)C(=O)[O-].[Pt+4] (stereo not given) | – | – | > 50 | > 50 | > 50 | > 50 | – | – | – | – | > 50 | > 50 | > 50 | > 50 | > 50 | > 50 | > 50 | > 50 | > 50 | > 50
4 | CN(C)CCCNC(=O)c1cc(NC(=O)c2cc(NC(=O)c3cc(NC(=O)CCc4c[nH]c5ccccc45)cn3C)cn2C)cn1C | > 100 | > 100 | > 100 | > 100 | > 100 | > 100 | – | – | 56.8 | > 100 | > 100 | > 100 | > 100 | > 100 | > 100 | > 100 | > 100 | > 100 | > 100 | > 100
5 | CCOC(=O)Oc1c(OC)cc(C(=O)O[C@@H]2C[C@@H]3CN4CCc5c([nH]c6cc(OC)ccc56)[C@H]4C[C@@H]3[C@H](C(=O)OC)[C@H]2OC)cc1OC | 11.7 | 25.2 | – | – | 3.61 | > 100 | 13.9 | 48.1 | 4.13 | 17.3 | 9.58 | 39.2 | 7.86 | 20.7 | 4.62 | 16.1 | 4.34 | 17.7 | 3.64 | 15.1
6 | CCOC(=O)C1C(=O)c2ccccc2CN1Cc1ccccc1 (stereo not given) | – | > 100 | – | > 100 | – | > 100 | – | > 100 | – | – | – | > 100 | – | > 100 | – | > 100 | – | > 100 | – | > 100
7 | CC1(C)OCC(CO)(Nc2nc(N3CC3)nc(N3CC3)n2)CO1 | – | 30.9 | – | > 83.4 | – | 28.9 | – | 13.8 | – | – | – | 58.5 | – | 22.1 | – | 49.4 | – | 58.6 | – | 25.3
8 | O=C(O)c1cc2c(cn1)[nH]c1ccccc12 | – | > 100 | – | > 100 | – | > 100 | – | > 100 | – | – | – | > 100 | – | > 100 | – | > 100 | – | > 100 | – | > 100
9 | OCCCCC#Cc1ccccc1C#Cc1ccccc1C(F)(F)F | 8.46 | > 100 | 3.91 | 17.2 | 0.475 | 2.97 | 5.37 | 17.9 | 10.6 | 31.6 | 11.2 | 23.2 | 11.6 | 24.4 | 2.3 | 9.28 | 12.2 | 26.5 | – | –
10 | CN(c1ccccc1)C(c1ccccc1)C(O)c1ccccc1 (stereo not given) | – | 38 | – | 63.3 | – | 49.8 | – | 47.7 | – | – | – | 45.4 | – | 34.7 | – | 32 | – | 31.3 | – | 37.7
11 | O=[N+]([O-])C1C2C=CC(C2)[C@H]1c1ccccc1Cl (stereo not given in full) | – | > 10 | – | > 100 | – | > 100 | – | > 10 | – | – | – | > 31.6 | – | > 100 | – | > 31.6 | – | > 100 | – | > 92.5
12 | CC[N+](CC)(CC)CCCn1c2c(c3ccccc3c1=O)C(=O)c1ccccc1-2 | – | – | 2.99 | 23.6 | 3.56 | > 100 | 3.74 | 30.9 | 2.89 | 7.4 | 3.1 | 24.1 | 1.43 | 5.91 | 9.05 | 50.2 | 5.59 | > 100 | 58.6 | > 100
13 | O=C(Nc1ccc(Cl)cc1)c1cc2ccccc2cc1O | 3.34 | > 100 | 4.65 | > 100 | 3.93 | > 100 | – | – | 1.9 | > 100 | 2.19 | > 100 | 1.84 | 5.51 | 2.01 | 6.67 | 2.46 | > 100 | 2.7 | 7.91
14 | CC(=O)/C=C/c1ccc(C2CC(C)=Nc3c(ccc4c3C(=O)c3ccccc3C4=O)N2)cc1 (stereo not given) | – | > 100 | – | > 100 | – | > 100 | – | > 83.5 | – | – | – | > 100 | – | > 100 | – | > 100 | – | > 100 | – | > 100
15 | O=C1C(=O)N(c2ccc(Cl)c(Cl)c2)C(=O)C(=O)C1c1nc2ccccc2o1 | – | > 100 | – | – | – | 86 | – | > 100 | – | – | – | > 100 | – | – | – | > 100 | – | > 100 | – | 53
16 | COc1ccc(/C=C\c2cc(OC)c(OC)c(OC)c2)cc1OCC(=O)Nc1nc2ccc(C(F)(F)F)cc2s1 | 5.22 | > 100 | 4.27 | > 100 | 3.35 | > 100 | 3.1 | > 100 | 3.16 | 65.1 | 4.48 | > 100 | 2.84 | 13.9 | 2.11 | 4.51 | 4.43 | > 100 | – | –
17 | O=C(O)C12C3CCCC1C2CC3 (stereo not given) | – | > 100 | – | > 100 | – | > 100 | – | > 100 | – | – | – | > 100 | – | > 100 | – | > 100 | – | > 100 | – | > 100
18 | O=C1OC2(c3ccccc3Oc3ccccc32)c2ccccc21 | – | > 100 | – | > 100 | – | > 100 | – | > 100 | – | – | – | > 100 | – | > 100 | – | > 100 | – | > 100 | – | > 100
